The test system of series [1] is HeLa cells. In words: MTT cytotoxicity assay, HeLa. The class given is cell-based. The note with it: Homo sapiens, 24 h, read-out: IC50, Cervix, HeLa. On the procedure:
(§1) In the first step of the study, we analyzed the cytotoxicity of novel soloxolone derivatives 1–12 in a panel of tumor cells, including human cervical carcinoma HeLa, human duodenal carcinoma HuTu-80 and murine melanoma B16 cells, as well as human non-transformed hFF3 foreskin fibroblasts. The cells were treated with derivatives for 24 h and cell viability was evaluated by 3-(4,5-dimethylthiazol-2-yl)-2,5-diphenyltetrazolium bromide (MTT) assay. SM was used as the reference compound.
(§2) The cells in the exponential growth phase were seeded in quadruplicate in 96-well plates at a density of 1 × 10^4 cells/well for HeLa, U87, U118, KELLY and Neuro2a cells; 1.5 × 10^4 cells/well for HuTu-80 cells; 2 × 10^4 cells/well for B16 cells; and 7 × 10^3 cells/well for hFF3 fibroblasts. Cells were incubated under standard conditions overnight followed by their treatment with the investigated compounds (1–20 µM) for 24 h. Then, 10 µL of MTT solution was added to the cells to a final concentration of 0.5 mg/mL and plates were placed under standard conditions for 3 h followed by an aspiration of MTT-containing medium and a dissolution of formazan crystals with 100 µL of DMSO. The absorbance of each well was read at test and reference wavelengths of 570 and 620 nm, respectively, on a Multiscan RC plate reader (Thermo LabSystems, Helsinki, Finland).

The subject of series [2] is U118 cells. Description: Colony formation assay, U118. It is filed as cell-based, human. To be noted: 14 days. On the procedure: To evaluate the antitumor potential of 12 more comprehensively, its effects at non-toxic concentrations (25–500 nM; cell survival of ≥90%) on a range of metastatic-related processes in glioblastoma cells were studied. Firstly, we investigated the inhibitory activity of 12 on the clonogenic capacity of tumor cells in vitro, which reflects their ability to form colonies from single cells which characterizes the stemness of tumor cells and plays a crucial role in metastasis.
U118 cells were seeded in 96-well plates in six replicates at a density of 200 cells/well and treated with 12 at 25–500 nM for 14 days under standard conditions. The culture media were replaced with fresh media containing corresponding concentrations of 12 every 6 days. After the incubation time, cell colonies were fixed with 4% paraformaldehyde, stained with crystal violet dye (0.1% w/v) and photographed using the iBright 1500 Imaging System (Invitrogen, USA). The percentage of area covered by cell colonies was computed using the ColonyArea ImageJ plugin [95].

Series [3] deals with HuTu-80 cells. In words: MTT cytotoxicity assay, HuTu-80. It is filed as cell-based. The note with it: Homo sapiens, HuTu80, 24 h, read-out: IC50, Duodenum, HuTu-80. How it is done: as §1, §2
Series [4] has as its system U118 cells. In words: Autophagy, MDC staining, U118. It is filed as cell-based, human. The note with it: 24 h. How it is done:
(§3) Given that pentacyclic triterpenoids can induce tumor cell death not only by the apoptotic pathway but also by triggering autophagy, we next studied whether 12 stimulated autophagy in glioblastoma cells. For this, U87 and U118 cells were incubated with tryptamide 12 at toxic concentrations (2 or 4 µM) for 24 h followed by cell staining with monodansylcadaverine (MDC), a fluorescent dye specifically labeling autophagosomes. […] Considering that autophagy can be associated not only with cell death but also with cytoprotection, its role in the cytotoxicity of 12 in glioblastoma cells was further studied.
(§4) To evaluate the ability of 12 to induce autophagy, U87 and U118 cells were seeded at 2.8 × 10^5 cells/well in 6-well plates and incubated under standard conditions overnight followed by their treatment with 12 in amounts of 2 and 4 μM for 24 h. Then, the cells were collected and washed with PBS as described above and resuspended in 500 µL of PBS containing monodancylcadaverine (MDC) at 50 μM. After incubation for 15 min under standard conditions, the cells were washed with PBS and analyzed by flow cytometry. For each sample, 10,000 events were acquired.

For series [5], the system named is U87 cells. Description: Colony formation assay, U87. The class given is cell-based, human. The note with it: for decrease of surface area covered by cell colonies compared to the control: 14 days.
Series [6] in a line: Toxicity assessment (body weight, organ indexes). It is filed as in vivo, Balb/C nude mice. On the procedure: (seven injections were performed in total) and brain tissue was collected 48 h after the last injection of 12 followed by a high-performance liquid chromatography–tandem mass spectrometry (HPLC–MS/MS) analysis of the obtained samples (Figure 3D). This treatment regimen was chosen due to its common usage in the evaluation of antitumor activity of various low-molecular weight compounds in xenograft murine models. […] Before the HPLC–MS/MS analysis, chromatographic conditions and mass spectrometer parameters for detecting both semisynthetic triterpenoid 12 and the internal standard in the multiple reaction monitoring (MRM) mode were optimized. The optimized parameters are given in Supplementary Table S1.
During the experiment, the general status of the animals and body weight was monitored. At the end of the experiment, organs were collected and organ indexes were calculated as (organ weight/body weight) × 100%.

Series [7] has as its system U118 cells. Description: Scratch assay (2D migration). The class given is cell-based, human. The note with it: U118, 12 at 100 nM, 48 h. On the procedure: To evaluate the ability of tryptamide 12 to suppress the migration potential of glioblastoma cells, two independent approaches were undertaken, including assessment of cell movement on a 2D surface (scratch assay) and through a trans-well membrane (CIM-Plate).
To assess the 2D motility of glioblastoma cells, U118 cells were seeded in triplicate in 6-well plates at a density of 8 × 10^5 cells/well and cultured to 80% confluence. Thereafter, the cell monolayers were scratched with 10 µL pipette tips and washed twice with PBS to remove floating cells and cell debris and treated with 12 at 100 nM for 48 h. At 0 h and 48 h, the scratched cell monolayers were imaged using a Primo Vert microscope with phase contrast optics (ZEISS, Oberkochen, Germany) equipped with a AxioCam ERc5s camera (ZEISS, Oberkochen, Germany). The wound closure rate was calculated using ImageJ software. In total, 4–5 regions on a single scratch were analyzed.

Series [8] concerns B16 cells. In words: MTT cytotoxicity assay, B16. To be noted: Mus musculus, 24 h, read-out: IC50, Melanoma, B16. It is filed as cell-based, murine. How it is done:
as §1, §2

The test system of series [9] is U87 cells. Description: Autophagy, MDC staining, U87. It is filed as cell-based, human. The note with it: 24 h. On the procedure:
as §3, §4

For the molecule `CC1(C)C(=O)C(C#N)=C[C@]2(C)C3=CC(=O)[C@@H]4[C@@H]5C[C@@](C)(C(=O)NCCc6c[nH]c7ccccc67)CC[C@]5(C)CC[C@@]4(C)[C@]3(C)CC[C@@H]12` [compound 12], the 50% inhibitory concentration (IC50) was found to be 1.5 ± 0.1 µM in series [1], 1.5 ± 0.1 µM in series [3] and 1.5 ± 0.2 µM in [8]. Also, the “reduction in the area of cell colonies compared to the control” value in series [2] (U118, 12 at 200 nM) is recorded as 1.4 fold; in [2] (U118, 12 at 500 nM), 2 fold. For the same molecule, the “MDC-positive cells, U118” value in series [4] (12 at 2 µM) worked out at 8.55%; in [4] (12 at 4 µM) it was 8.02%. The “decrease of surface area covered by cell colonies compared to the control” value turned out to be 2.1 fold in series [5] (U87, 12 at 200 nM) and 2.4 fold in [5] (U87, 12 at 500 nM). Moreover, the “inhibitory effect on clonogenic growth” value in series [5] (U87, 12 at 50 and 100 nM) is given as “statistically insignificant”. Further, the “organ indexes in experimental and control groups” value in series [6] (U87 glioblastoma-bearing mice, 20 mg/kg i.p.) is recorded as “did not reveal significant differences”. Further, in [6] (nude mice, 50 mg/kg i.p., thrice a week for two weeks), the “mouse body weight compared to untreated mice” value is “did not reveal significant changes”. Also, the “inhibition of 2D migration compared to the control” value in [7] is given as “two times”. Also, the “MDC-positive cells, U87” value amounted to 19.57% in series [9] (12 at 2 µM) and 31.95% in series [9] (12 at 4 µM).

The values above are taken from PMC9145754, “Novel Soloxolone Amides as Potent Anti-Glioblastoma Candidates: Design, Synthesis, In Silico Analysis and Biological Activities In Vitro and In Vivo” (Pharmaceuticals, 2022).
